Several values for one entry are separate records, joined by “and”; a condition that tells them apart may be missing. Identical values can stand only once. Like-named read-outs stand apart in the source and are kept apart here.
How the values were obtained:
P. berghei blood stages = settings: Pb-infected mice, single oral 50 mg/kg dose 1 day PI, compared to untreated animals
P. berghei liver stages [1] = format: in vivo, Plasmodium berghei; settings: liver stage model, mice
Plasmodium cynomolgi = settings: rhesus monkeys; cited from earlier work
P. falciparum TM90-C2B = settings: RI = EC50(TM90-C2B)/EC50(W2); cited from earlier work
P. berghei liver stages [2] = settings: read-out: liver stage activity; cited from earlier work
[3] = single dose 50 mg/kg subcutaneous

## COC(=O)c1c[nH]c2cc(CN3CCN(c4ccc(C(F)(F)F)cc4)CC3)c(OC)cc2c1=O [8ab, Methyl 6-Methoxy-4-oxo-7-((4-(4-(trifluoromethyl)phenyl)-piperazin-1-yl)methyl)-1,4-dihydroquinoline-3-carboxylate]
P. berghei blood stages
  % inhibition day 6 PI: completely inhibited parasite growth

## Cc1[nH]c2cc(CN3CCN(c4ccc(F)cc4)CC3)ccc2c(=O)c1Br [8an, 3-Bromo-7-((4-(4-Fluorophenyl)piperazin-1-yl)methyl)-2-methylquinolin-4(1H)-one]
P. berghei blood stages
  % inhibition day 6 PI: completely inhibited parasite growth

## COC(=O)c1c[nH]c2cc(CN3CCN(c4ccccc4)CC3)ccc2c1=O [8j, Methyl 4-Oxo-7-((4-phenylpiperazin-1-yl)methyl)-1,4-dihydroquinoline-3-carboxylate]
P. berghei liver stages [1]; single dose 25 mg/kg oral
  no. of cures: 2/5
P. berghei liver stages [1]; single dose 50 mg/kg oral
  no. of cures: 2/5
P. berghei liver stages [1]; [3]
  no. of cures: 3/5
P. berghei liver stages [1]; single dose 100 mg/kg oral
  no. of cures: 5/5

## COC(=O)c1c[nH]c2cc(CN3CCN(Cc4ccc(OC)cc4)CC3)ccc2c1=O [8l, Methyl 7-((4-(4-Methoxybenzyl)piperazin-1-yl)methyl)-4-oxo-1,4-dihydroquinoline-3-carboxylate]
P. berghei liver stages [1]; single dose 25 mg/kg oral
  no. of cures: 0/5
P. berghei liver stages [1]; single dose 50 mg/kg oral
  no. of cures: 0/5
P. berghei liver stages [1]; [3]
  no. of cures: 0/5
P. berghei liver stages [1]; single dose 100 mg/kg oral, 100 mg/kg
  no. of cures: one of five and 1/5

## COC(=O)c1c[nH]c2cc(CN3CCN(c4ccc(C(F)(F)F)cc4)CC3)ccc2c1=O [8p, Methyl 4-Oxo-7-((4-(4-(trifluoromethyl)phenyl)piperazin-1-yl)-methyl)-1,4-dihydroquinoline-3-carboxylate]
P. berghei blood stages
  % inhibition day 6 PI: completely inhibited parasite growth

## COC(=O)c1c[nH]c2cc(CN3CCN(c4ccc(C(F)(F)F)cc4)CC3)c(C)cc2c1=O [8v, Methyl 6-Methyl-4-oxo-7-((4-(4-(trifluoromethyl)phenyl)-piperazin-1-yl)methyl)-1,4-dihydroquinoline-3-carboxylate]
P. berghei blood stages
  % inhibition day 6 PI: completely inhibited parasite growth

## CCCCc1cc2c(=O)c(C(=O)OCC)c[nH]c2cc1OCCOc1ccccc1 [compound 1]
Plasmodium cynomolgi
  radical cure (eradication of dormant exoerythrocytic stages): radical cures

## CCCCc1cc2c(=O)c(Br)c(C)[nH]c2cc1OCCOc1ccccc1 [compound 2, 3-bromo-6-butyl-2-methyl-7-(2-phenoxyethoxy)quinolin-4(1H)-one]
P. falciparum TM90-C2B
  resistance index (RI): 4.7
P. berghei liver stages [2]
  EC50: 2.12 nM
